Columns and labels:
[1] = test system: transformed budding yeast TM182-BcOS1-I365S; experiment: Antifungal compound sensitivity test of transformed budding yeast TM182-BcOS1-I365S (Example 6); type: cell-based, Saccharomyces cerevisiae; settings: final concentration 6 ppm, 30° C. 67 hours; for Degree of growth of budding yeast (%) TM182-BcOS1-I365S Gal-Ura-Leu medium: control medium
[2] = test system: transformed budding yeast TM182-BcOS1-I365S; experiment: as above; type: cell-based, Saccharomyces cerevisiae; settings: 30° C. 67 hours; for Degree of growth of budding yeast (%) TM182-BcOS1-I365S Gal-Ura-Leu medium: control medium
Experimental: The transformed budding yeast TM182-BcOS1-I365S prepared in Example 5 was cultured at 30° C. for 18 hours in a Glu-Ura-Leu medium. The absorbance at 600 nm of a cell suspension of the grown transformed budding yeast was measured, and a cell suspension diluted with sterilized distilled water to the absorbance of 0.1 was prepared. Further, a cell suspension in which the aforementioned cell suspension of the transformed budding yeast TM182-BcOS1-I365S was diluted 200-fold with a Glu-Ura-Leu medium and, as a control, a cell suspension in which the cell suspension was diluted 200-fold with a Gal-Ura-Leu medium were prepared. A solution in which each of Compound (1) to (3) was dissolved in dimethylsulfoxide (DMSO) to the concentration of 60 ppm, a solution in which each of Compounds (4) and (5) was dissolved in dimethylsulfoxide (DMSO) to the concentration of 2000 ppm, and a solution in which each of Compounds (6) and (7) was dissolved in dimethylsulfoxide (DMSO) to the concentration of 20 ppm were prepared, and two microplates were prepared in which each 2.0 μL per well of the Compound solution and DMSO as a control were dispensed into two wells. In one microplate among them, each 200 μL of cell suspensions of the transformed budding yeast TM182-BcOS1-I365S which had been prepared by dilution with a Glu-Ura-Leu medium as described above was dispensed, and cultured by allowing to stand at 30° C. for 67 hours. In another microplate, as a control, each 200 μL of cell suspensions of the transformed budding yeast TM182-BcOS1-I 365S which had been prepared by dilution with a Gal-Ura-Leu medium was dispensed, and cultured by allowing to stand at 30° C. for 67 hours. After culturing, the absorbance at 600 nm of each well was measured with a microplate reader.
Degrees of growths of both of the transformed budding yeasts cultured under the presence of Compounds (1) to (7) and budding yeast as a control therefor are shown in Table 2. Degrees of growths of both of the transformed budding yeasts and budding yeast as a control are expressed by a relative value in percentage, letting the absorbance at 600 nm at the concentration of the Compound of 0 ppm to be 100. It was confirmed that an inhibiting degree of growth of the transformed budding yeast TM182-BcOS1-I 365S by each test substance was grater than an inhibiting degree of growth of the transformed budding yeast AH22-BcOS1-I 365S by each test substance, and the transformed budding yeast TM182-BcOS1-I365S was a transformed cell with the enhanced sensitivity to an antifungal compound as compared with the transformed budding yeast AH22-BcOS1-I365S.

For CC12CC1(C)C(=O)N(c1cc(Cl)cc(Cl)c1)C2=O (centres unmarked) [Compound (1), Procymidone], the “Degree of growth of budding yeast (%) TM182-BcOS1-I365S Gal-Ura-Leu medium” value [1] was 99% and the “Degree of growth of budding yeast (%) TM182-BcOS1-I365S Glu-Ura-Leu medium” value [1] was 9%.
In the case of CC(C)NC(=O)N1CC(=O)N(c2cc(Cl)cc(Cl)c2)C1=O [Compound (2), Iprodione], the “Degree of growth of budding yeast (%) TM182-BcOS1-I365S Gal-Ura-Leu medium” value [1] is reported as 88% and the “Degree of growth of budding yeast (%) TM182-BcOS1-I365S Glu-Ura-Leu medium” value [1] is reported as 11%.
With C=CC1(C)OC(=O)N(c2cc(Cl)cc(Cl)c2)C1=O (centres unmarked) [Compound (3), Vinclozolin] the “Degree of growth of budding yeast (%) TM182-BcOS1-I365S Gal-Ura-Leu medium” value [1] was 92% and the “Degree of growth of budding yeast (%) TM182-BcOS1-I365S Glu-Ura-Leu medium” value [1] was 9%.
For O=[N+]([O-])c1c(Cl)c(Cl)c(Cl)c(Cl)c1Cl [Compound (4), Quintozene], the “Degree of growth of budding yeast (%) TM182-BcOS1-I365S Gal-Ura-Leu medium” value ([2]; final concentration 20 ppm) was 101% and the “Degree of growth of budding yeast (%) TM182-BcOS1-I365S Glu-Ura-Leu medium” value ([2]; final concentration 20 ppm) was 41%.
In the case of COP(=S)(OC)Oc1c(Cl)cc(C)cc1Cl [Compound (5), Tolclofos-methyl], the “Degree of growth of budding yeast (%) TM182-BcOS1-I365S Gal-Ura-Leu medium” value ([2]; final concentration 20 ppm) is reported as 76% and the “Degree of growth of budding yeast (%) TM182-BcOS1-I365S Glu-Ura-Leu medium” value ([2]; final concentration 20 ppm) is reported as 13%.
With N#Cc1c[nH]cc1-c1cccc2c1OC(F)(F)O2 [Compound (6), Fludioxonil] the “Degree of growth of budding yeast (%) TM182-BcOS1-I365S Gal-Ura-Leu medium” value ([2]; final concentration 0.2 ppm) was 93% and the “Degree of growth of budding yeast (%) TM182-BcOS1-I365S Glu-Ura-Leu medium” value ([2]; final concentration 0.2 ppm) was 7%.
N#Cc1c[nH]cc1-c1cccc(Cl)c1Cl [Compound (7), Fenpiclonil] was tested, and the “Degree of growth of budding yeast (%) TM182-BcOS1-I365S Gal-Ura-Leu medium” value ([2]; final concentration 0.2 ppm) was 90% and the “Degree of growth of budding yeast (%) TM182-BcOS1-I365S Glu-Ura-Leu medium” value ([2]; final concentration 0.2 ppm) was 22%.
